In patent US5049380A, “Anti-allergic extract” (Bar-Ilan University, priority 1989, dated 1991):

System: potato 5-lipoxygenase
Assay: Inhibition of potato 5-lipoxygenase, arachidonic acid oxidation, polarographic
Type: biochemical
Conditions: caffeic acid 0.33 mM final concentration, AA 313 2 mg.
Protocol: A reaction mixture containing 1050 units potato 5-lipoxygenase was subjected to the action of the known inhibitor caffeic acid as well as to 2 mg AA 313. Enzyme activity was tested by the ability of a sample of the reaction mixture to oxidize arachidonic acid (concentration of 0.33 mM). […] Enzyme activity was estimated polarographically.

Q: `O=C(O)/C=C/c1ccc(O)c(O)c1` [caffeic acid] was tested. Which “% Inhibition” value did it give?
A: 64%

Q: And the “Enzyme activity (units)” value (control 1050 units)?
A: 375 units
